We go through 13 molecules from patent US10987351B2, “RORgamma modulators and uses thereof” (Genfit, priority 2017, dated 2021).

For experiment [1], the target named is T1, human RORγt (Homo sapiens, UniProt P51449).
T1 sequence (P51449 1-497 isoform P51449-2): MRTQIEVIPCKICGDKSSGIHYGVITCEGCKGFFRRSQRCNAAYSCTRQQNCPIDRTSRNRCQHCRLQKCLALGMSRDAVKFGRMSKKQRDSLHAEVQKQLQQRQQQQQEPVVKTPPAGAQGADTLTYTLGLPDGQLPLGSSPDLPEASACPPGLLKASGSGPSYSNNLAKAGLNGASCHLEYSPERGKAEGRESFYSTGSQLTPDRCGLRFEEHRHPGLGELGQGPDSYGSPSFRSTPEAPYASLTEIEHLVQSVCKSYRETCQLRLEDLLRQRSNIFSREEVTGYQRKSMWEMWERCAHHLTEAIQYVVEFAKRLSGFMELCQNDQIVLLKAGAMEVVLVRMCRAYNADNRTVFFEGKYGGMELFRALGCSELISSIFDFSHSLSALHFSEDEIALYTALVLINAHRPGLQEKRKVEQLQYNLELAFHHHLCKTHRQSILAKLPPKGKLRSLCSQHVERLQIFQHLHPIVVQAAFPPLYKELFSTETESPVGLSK
In words: RORE Luciferase/RORγt transactivation assay. Format: cell-based. More on the design: the full-length cDNA of human RORγt; V5-His (encoded by the vector); expressed in transfected cells; host or cells: COS-7 (monkey kidney). To be noted: COS-7 cells transfected with human IL-17 promoter luciferase reporter and RORγt plasmid, 20 h; read-out: IC50, RORγt activity inhibition (luciferase reporter). How it is done:
It is well known that RORγ binds to a conserved non-coding sequence (CNS) enhancer element in the IL-17 promoter.
Culture medium was changed every 2 days.
The 4.3 Kb human IL-17 promoter containing the RORγ-specific CNS enhancer element was PCR amplified from human genomic DNA and cloned into a pGL3-TKLuc2Cp reporter plasmid.
The luciferase reporter plasmid and the RORγt overexpression plasmid were transfected into COS-7 cell line using 4 μLJetPEI™/μg of DNA. Briefly, 150 ng of DNA (ration 1/2 between RORE-Tk Luc2Cp and cDNA RORγt or the empty vector for the negative control) was served to transfect adherent COS-7 cells in a […] culture flask, in complete medium (see cos-7 cell line culture).
Cells were then detached (using trypsin) and washed by centrifugation at 300 g for 10 minutes. Cell pellet was resuspended in serum free/phenol red free DMEM and seeded in 384 well plates at a density of 10000 cells/well and then incubated for 4 h at 37° C.
Compounds were dissolved in 100% DMSO to obtain 10 mM stock solutions. For each compound, test concentrations were diluted in serum free/phenol red free DMEM using the Genesis Freedom 200™ (TECAN) and added to the cells to obtain a 0.3% DMSO final concentration (in a final volume of 40 μL per well).
The luciferase activity was then measured with 40 μL/well steady-Glo Luciferase assay system (Promega, Madison, Wis.) and after incubation at room temperature for 30 minutes. The luminescence was estimated using the Ultra384 reader (TECAN). Data were collected and analyzed using GraphPad Prism software (GraphPad Software V5.02, San Diego Calif. USA). IC50 in μM and Emax in % were reported for each compound.
Background: Reporter assays use an easily measured gene product as a stand-in for the process of interest.

Experiment [2] has as its target T1, human RORγt. Put plainly: IL-17 secretion from EL4 murine lymphoma cells overexpressing human RORγt. Format: cell-based. The conditions noted are these: human RORγt-transfected EL4 cells, PMA and ionomycin stimulation; read-out: IC50, inhibition of IL-17 secretion. How it is done:
Murine EL-4 lymphoma cell line overexpressing human RORγt was used in this functional assay to assess compound ability to inhibit IL-17 cytokine secretion.
EL-4 cells are maintained in a standard culture medium RPMI supplemented with 10% fetal calf serum, 1% sodium pyruvate, 1% essential amino acids and 1% antibiotics at 37° C. in a humidified atmosphere of 5% CO02 and 95% air. Culture medium was changed every 2 days. EL4 cells were transfected with a plasmid encoding hRORγt (sequence identical to published sequence NM 001001523). […] Briefly, 1 μg of DNA/1 million cells was served to transfect EL-4 cells. Cell/DNA suspension was transferred into certified cuvette and the electroporation of RORγt plasmid was carried out using appropriate Nucleofector® program.
Cells were seeded in 96 well plates at a density of 150000 cells/I well then treated with compounds of this invention at indicated concentrations and incubated for 24 hours at 37° C. in a humidified atmosphere of 5% CO2 and 95% air. EL-4 cells were pretreated with test compounds (RORγ modulators) and stimulated with PMA (10 ng/mL) and ionomycin (1 μM final concentration) in the presence of test compound concentrations for additional 24 h at 37° C. in a humidified atmosphere of 5% CO2 and 95% air. Subsequently, supernatants were collected (after centrifugation at 300 g for 10 minutes) to determine the concentrations of IL-17 by HTRF (CisBio, France) or ELISA (R&D Systems Europe) according to the manufacturer's protocols.

Experiment [3] has as its target T2, RORγt ligand-binding domain (RORγt-LBD) (Homo sapiens, UniProt P51449).
T2 construct: 20 nM recombinantly expressed RORγ-LBD fused to GST
T2 sequence (P51449 269-508 limits assumed): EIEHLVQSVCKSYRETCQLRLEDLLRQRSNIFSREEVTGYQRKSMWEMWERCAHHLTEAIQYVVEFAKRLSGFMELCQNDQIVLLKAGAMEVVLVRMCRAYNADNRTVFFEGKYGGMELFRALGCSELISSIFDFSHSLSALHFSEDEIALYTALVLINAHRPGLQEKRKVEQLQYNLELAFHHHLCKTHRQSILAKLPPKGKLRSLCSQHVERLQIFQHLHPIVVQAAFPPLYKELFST
In words: Time-resolved FRET (TR-FRET) RORγt coactivator assay. Format: biochemical. The conditions noted are these: GST-RORγ-LBD, biotinylated RIP140 peptide, 2 hours; read-out: IC50, coactivator-RORγt binding inhibition (TR-FRET). The text has this:
Time-resolved FRET (TR-FRET) RORγt coactivator assay was used to identify RORγ modulator compounds with ligand-dependent coactivator displacement. The assay uses a d2-labeled anti-GST antibody, synthetic N-terminally biotinylated peptide which is derived from nuclear receptor coactivator protein RIP140, and a RORγt ligand-binding domain (RORγt-LBD) that is tagged with glutathione-S-transferase (GST). The influence of compounds on the RORγ-peptide interaction relies on the binding dependent energy transfer from a donor to an acceptor fluorophor attached to the binding partner of interest. […] For reduction of background from compound fluorescence, TR-FRET method makes use of generic fluorophore labels and time resolved detection.
The assays were done in a final volume of 20 μl in a 384 well plate in a CHAPS buffer (2 mM CHAPS; 1 mM DTT, 2 mM EDTA; 0.1% BSA), containing 20 nM recombinantly expressed RORγ-LBD fused to GST, 30 nM N-terminally biotinylated peptide, 1 nM streptavidin-terbium conjugate and 20 nM d2 labeled-anti-GST. Test compounds were diluted using 10 mM stock solution. The range of the final compound concentrations used in this test was from 0.3 nM to 30 μM (logarithmic scale). DMSO content of the samples was kept at 1%. The assay was equilibrated for 2 hours in the dark at room temperature in 384 well plates (Falcon). The signal was detected by an Ultra384 reader (TECAN). […] Compounds that promote coactivator displacement induce a concentration-dependent decrease in time-resolved fluorescent signal. Data were collected and analyzed using GraphPad Prism software (GraphPad Software V5.02, San Diego Calif. USA). IC50 in μM and Emax in % were reported for each compound.

A word on the IC50: it is the concentration that inhibits the measured activity by half. For the molecule `CC(=O)N1CCN(c2ccc(CC(=O)NC(c3ccccc3)c3ccccc3N3CCCCC3)cc2)CC1` (stereo not drawn) [Cpd.1, 2-[4-(4-acetylpiperazin-1-yl)phenyl]-N-{phenyl[2-(piperidin-1-yl)phenyl]methyl}acetamide], the IC50 was 0.1 to 1 µM at human RORγt [1], 0.1 to 1 µM on human RORγt [2] and below 0.1 µM in experiment [3].
In the case of `CC(=O)N1CCN(c2ccc(C)c(CC(=O)NC(c3ccccc3)c3ccc(C)cc3N3CCCC3)c2)CC1` (stereo not drawn) [Cpd.3, 2-[5-(4-acetylpiperazin-1-yl)-2-methylphenyl]-N-{[4-methyl-2-(pyrrolidin-1-yl)phenyl](phenyl)methyl}acetamide], the IC50 on human RORγt [1] was below 0.1 µM; on human RORγt [2] it was 0.1 to 1 µM; in experiment [3], below 0.1 µM.
For `CC(=O)N1CCN(c2ccc(C)c(CC(=O)NC(c3ccc(C)o3)c3ccc(C)cc3N3CCCCC3)c2)CC1` (stereo not drawn) [Cpd.10, 2-[5-(4-acetylpiperazin-1-yl)-2-methylphenyl]-N-{[4-methyl-2-(piperidin-1-yl)phenyl](5-methylfuran-2-yl)methyl}acetamide], the IC50 (on human RORγt [1]; at human RORγt [2]; in experiment [3]) was below 0.1 µM in each case.
`COc1ccc(C(NC(=O)Cc2cc(N3CCN(C(C)=O)CC3)ccc2C)c2ccc(C)o2)c(N2CCCCCC2)c1` (stereo not drawn) [Cpd.11, 2-[5-(4-acetylpiperazin-1-yl)-2-methylphenyl]-N-{[2-(azepan-1-yl)-4-methoxyphenyl](5-methylfuran-2-yl)methyl}acetamide]: the IC50 on human RORγt [1] was 0.1 to 1 µM; at human RORγt [2] it was 0.1 to 1 µM; in experiment [3] it was below 0.1 µM.
As for `CC(=O)N1CCN(c2ccc(F)c(CC(=O)NC(c3ccc(C)o3)c3ccc(C)cc3C)c2)CC1` (stereo not drawn) [Cpd.12, 2-[5-(4-acetylpiperazin-1-yl)-2-fluorophenyl]-N-[(2,4-dimethylphenyl)(5-methylfuran-2-yl)methyl]acetamide], the IC50 at human RORγt [1] was 0.1 to 1 µM; on human RORγt [2], 1 to 10 µM; in experiment [3], below 0.1 µM.
Taken in the same sequence, the figures for `COc1ccc(C(NC(=O)Cc2cc(N3CCN(C(C)=O)CC3)ccc2F)c2ccc(C)o2)c(N2CCCCCC2)c1` (stereo not drawn) [Cpd.14, 2-[5-(4-acetylpiperazin-1-yl)-2-fluorophenyl]-N-{[2-(azepan-1-yl)-4-methoxyphenyl](5-methylfuran-2-yl)methyl}acetamide] were 0.1 to 1 µM, 0.1 to 1 µM and below 0.1 µM.
Taken in the same sequence, the figures for `Cc1ccc(C(NC(=O)Cc2cc(N3CCN(S(C)(=O)=O)CC3)ccc2F)c2ccc(C)o2)c(N2CCCCC2)c1` (stereo not drawn) [Cpd.16, 2-[2-fluoro-5-(4-methanesulfonylpiperazin-1-yl)phenyl]-N-{[4-methyl-2-(piperidin-1-yl)phenyl](5-methylfuran-2-yl)methyl}acetamide] were 0.1 to 1 µM, 0.1 to 1 µM and below 0.1 µM.
Take `COc1ccc(C(NC(=O)Cc2cc(N3CCN(C(C)=O)CC3)ccc2F)c2ccccc2)c(N2CCCCCC2)c1` (stereo not drawn) [Cpd.17, 2-[5-(4-acetylpiperazin-1-yl)-2-fluorophenyl]-N-{[2-(azepan-1-yl)-4-methoxyphenyl](phenyl)methyl}acetamide]: the IC50 is 0.1 to 1 µM at human RORγt [1], 0.1 to 1 µM on human RORγt [2] and below 0.1 µM in experiment [3].
On to `Cc1ccc(C(NC(=O)Cc2ccc(N3CCC(S(C)(=O)=O)CC3)cc2)c2ccc(C)o2)c(N2CCCCC2)c1` (stereo not drawn) [Cpd.18, 2-[4-(4-methanesulfonylpiperidin-1-yl)phenyl]-N-{[4-methyl-2-(piperidin-1-yl)phenyl](5-methylfuran-2-yl)methyl}acetamide], for which the values for the IC50 (at human RORγt [1]; at human RORγt [2]; in experiment [3]) were below 0.1 µM, 0.1 to 1 µM and below 0.1 µM, respectively.
As for `CC(=O)C1CCN(c2ccc(CC(=O)NC(c3ccc(C)o3)c3ccc(C)cc3N3CCCCC3)cc2)CC1` (stereo not drawn) [Cpd.19, 2-[4-(4-acetylpiperidin-1-yl)phenyl]-N-{[4-methyl-2-(piperidin-1-yl)phenyl](5-methylfuran-2-yl)methyl}acetamide], the IC50 was below 0.1 µM at human RORγt [1], 0.1 to 1 µM on human RORγt [2] and below 0.1 µM in experiment [3].
Regarding `Cc1ccc(C(NC(=O)Cc2cccc(N3CCC(S(C)(=O)=O)CC3)c2)c2ccc(C)o2)c(N2CCCCC2)c1` (stereo not drawn) [Cpd.22, 2-[3-(4-methanesulfonylpiperidin-1-yl)phenyl]-N-{[4-methyl-2-(piperidin-1-yl)phenyl](5-methylfuran-2-yl)methyl}acetamide], the IC50 (on human RORγt [1]; in experiment [3]) was below 0.1 µM throughout.
Turning to `Cc1ccc(C(NC(=O)Cc2cccc(N3CCN(C)CC3)c2)c2ccc(C)o2)c(N2CCCCC2)c1` (stereo not drawn) [Cpd.23, N-{[4-methyl-2-(piperidin-1-yl)phenyl](5-methylfuran-2-yl)methyl}-2-[3-(4-methylpiperazin-1-yl)phenyl]acetamide], the IC50 at human RORγt [1] is 0.1 to 1 µM; in experiment [3], below 0.1 µM.
Taken in the same sequence, the figures for `Cc1ccc(C(NC(=O)Cc2cccc(N3CCN(C(=O)C(F)(F)F)CC3)c2)c2ccc(C)o2)c(N2CCCCC2)c1` (stereo not drawn) [Cpd.25, N-{[4-methyl-2-(piperidin-1-yl)phenyl](5-methylfuran-2-yl)methyl}-2-{3-[4-(trifluoroacetyl)piperazin-1-yl]phenyl}acetamide] were below 0.1 µM and 0.1 to 1 µM.
